# From article PMC8682738, “Constrained peptides mimic a viral suppressor of RNA silencing” (Nucleic Acids Research, 2021)
# Positions of bridges follow the written chain, without caps; N, C: chain ends. Non-standard residues stand in square brackets, D forms with d. Residues, ends and D or L forms follow the SMILES beside them. *: point of attachment. FITC = O=C1OC2(c3ccc(O)cc3Oc3cc(O)ccc32)c2ccc(NC(=S)*)cc21; R8 = C=CCCCCCC[C@@](C)(N)C(=O)O; S5 = C=CCCC[C@](C)(N)C(=O)O; AEEA = NCCOCCOCC(=O)O
# Legend:
# [1] = system: pre-miR-21; experiment: Pull-down of pre-miR-21 from K562 cells; format: cell-based, human; details: biotinylated peptide 10 μM, streptavidin beads, qRT-PCR, triplicate
# Method: 2 × 10^6 K562 cells were incubated with N-terminally biotinylated peptides (c(peptide) = 10 μM, t = 2.5 h) for uptake on a rotating wheel at 37°C. The cells were extensively washed in PBS and lysed in lysis buffer (25 mM HEPES, pH 7.5, 150 mM NaCl, 0.05% IGEPAL CA-630, 1 mM EDTA) supplemented with 0.5 U/μl RNAse inhibitor (Superase-in, ThermoFisher). The lysate was cleared by centrifugation at 21 000 g at 4°C, an aliquot of the supernatant was removed and re-suspended in Trizol, while the remaining was incubated with streptavidin-coupled magnetic beads (Dynabeads M280, ThermoFisher) on a rotating wheel (2 h, 4°C). After magnetic separation and washing (3× in lysis buffer), the beads were re-suspended in 20 μl lysis buffer, re-suspended in Trizol (ThermoFisher), and 400 ng t-RNA was added per sample as a carrier. RNA was extracted from Trizol using the standard protocol and the qRT-PCR was performed according to a previously published protocol ([62]) using the primers h-miR21-3p-FW ([…]), h-miR21-3p-RV ([…]), h-miR21-5p-FW ([…]), h-miR21-5p-RV ([…]) in a CFX96 real-time machine (Bio-Rad). The relative enrichment was calculated as a ratio of copies in the immunoprecipitate over input normalized to the enrichment of the control peptide D1.
# [2] = system: pal-DNA; experiment: EMSA with ds DNA analog of pal-RNA; format: binding; details: fluorescein-labeled peptide 3 μM, oligonucleotide 9 μM
# Method: Electrophoretic mobility shift assays (EMSAs) were performed using a Bio-Rad Mini-Protean gel system paired with a direct current (DC) power source (PowerPac™ HC, Bio-Rad). […] After incubation, bound RNA was resolved from peptide-free RNA using 10% non-denaturing polyacrylamide gels at 120 V in running buffer (25 mM Tris (pH 8.0), 200 mM glycine, 20 mM NaCl) at 4°C for 1 h. Visualization of fluorescent gel-bound species was conducted using a Typhoon Trio + fluorescence scanner (GE Healthcare Life Sciences). For nucleic acid visualization, gels were stained using 2 μl of SYBR™ gold nucleic acid gel dye (Molecular Probes) in 20 ml of TAE buffer (40 mM Tris, 1 mM EDTA, 20 mM acetic acid) for 45 min at RT before being visualized using a FluorChem™ gel documentation system (Alpha Innotech). To assess B3 binding to different ds RNA sequences (Supplementary Figure S20), 6 μl solutions containing hairpin RNA (c = 1 μM) and fluorescein-labeled B3 (c = 2 μM) were incubated in binding buffer (TAE and 10% glycerol) at RT for 1 h, and then resolved using 15% non-denaturing polyacrylamide gels (acrylamide/bis-acrylamide (19:1) in TAE) at 150 V in running buffer (TAE) at 4°C for 1.5 h. Visualization of fluorescent gel-bound species was conducted using a Bio-Rad ChemiDoc (Bio-Rad). […]
# [3] = system: yeast transfer RNAs (t-RNAs); experiment: EMSA with transfer RNA; format: binding, baker's yeast; details: fluorescein-labeled peptide 3 μM, t-RNA 9 μM
# Method: (§1) Electrophoretic mobility shift assays (EMSAs) were performed using a Bio-Rad Mini-Protean gel system paired with a direct current (DC) power source (PowerPac™ HC, Bio-Rad). Typically, 6 μl solutions containing ds RNA (c = 3 μM) and fluorescein-labeled peptide (c = 6 μM) were incubated in binding buffer (10 mM Tris (pH 8.0), 0.5 mM EDTA, 12.5% glycerol and 150 mM KCl) at 4°C for 1 h. After incubation, bound RNA was resolved from peptide-free RNA using 10% non-denaturing polyacrylamide gels at 120 V in running buffer (25 mM Tris (pH 8.0), 200 mM glycine, 20 mM NaCl) at 4°C for 1 h. Visualization of fluorescent gel-bound species was conducted using a Typhoon Trio + fluorescence scanner (GE Healthcare Life Sciences). For nucleic acid visualization, gels were stained using 2 μl of SYBR™ gold nucleic acid gel dye (Molecular Probes) in 20 ml of TAE buffer (40 mM Tris, 1 mM EDTA, 20 mM acetic acid) for 45 min at RT before being visualized using a FluorChem™ gel documentation system (Alpha Innotech). To assess B3 binding to different ds RNA sequences (Supplementary Figure S20), 6 μl solutions containing hairpin RNA (c = 1 μM) and fluorescein-labeled B3 (c = 2 μM) were incubated in binding buffer (TAE and 10% glycerol) at RT for 1 h, and then resolved using 15% non-denaturing polyacrylamide gels (acrylamide/bis-acrylamide (19:1) in TAE) at 150 V in running buffer (TAE) at 4°C for 1.5 h. […]
# [4] = system: pre-miR-21; experiment: EMSA with pre-miR-21; format: binding; details: fluorescein-labeled peptide 6 μM, pre-miR-21 3 μM
# Method: as §1
Structure (SMILES),enrichment of pre-miR-21 relative to control peptide D1 [1],binding to ds DNA analog of pal-RNA in EMSA [2],binding to yeast t-RNA mixture in EMSA [3],binding to pre-miR-21 in EMSA [4]
"CC(C)C[C@@H]1NC(=O)[C@@](C)(NC(=O)[C@H](CO)NC(=O)[C@H](CCCNC(=N)N)NC(=O)[C@H](CCCNC(=N)N)NC(=O)[C@H](CCC(N)=O)NC(=O)[C@H](CCC(=O)O)NC(=O)[C@H](CO)NC(=O)[C@@H]2CCCN2C(=O)[C@H](CO)NC(=O)[C@H](CCCCN)NC(=O)[C@H](Cc2c[nH]cn2)NC(=O)CNC(=O)[C@H](CCCNC(=N)N)NC(=O)[C@H](CCC(=O)O)NC(=O)[C@H](CCCCN)NC(=O)[C@H](CCCNC(=N)N)NC(=O)[C@H](CC(N)=O)NC(=O)[C@]2(C)CCCC=CCCCCCC[C@@](C)(NC(=O)[C@H](CCC(N)=O)NC(=O)[C@H](CCCCN)NC(=O)[C@H](CCCCN)NC(=O)COCCOCCNC(=S)Nc3ccc4c(c3)C(=O)OC43c4ccc(O)cc4Oc4cc(O)ccc43)C(=O)N[C@@H](CCC(N)=O)C(=O)N[C@@H](CCCNC(=N)N)C(=O)N[C@@H](CCCCN)C(=O)N[C@@H](CCCNC(=N)N)C(=O)N[C@@H](Cc3c[nH]cn3)C(=O)N[C@@H](CCCCN)C(=O)N2)CCCC=CCCC[C@@](C)(C(=O)N[C@@H](CCCNC(=N)N)C(N)=O)NC(=O)[C@H](Cc2c[nH]cn2)NC(=O)[C@H](Cc2c[nH]c3ccccc23)NC1=O [C1] ({FITC-AEEA}-KKQ[R8]QRKRHK[S5]NRKERGHKSPSEQRRS[S5]LWH[S5]R-NH2; staple 4-11, 28-32)",did not show detectable pre-miR-21 enrichment,did not bind,did not observe binding,indicated pre–miRNA-binding
"CC(C)C[C@H](NC(=O)[C@]1(C)CCCC=CCCC[C@](C)(NC(=O)[C@H](CCC(=O)O)NC(=O)[C@H](CO)NC(=O)[C@@H]2CCCN2C(=O)[C@H](CO)NC(=O)[C@H](CCCCN)NC(=O)[C@H](Cc2c[nH]cn2)NC(=O)CNC(=O)[C@H](CCCNC(=N)N)NC(=O)[C@]2(C)CCCC=CCCC[C@](C)(NC(=O)[C@H](CCCCN)NC(=O)[C@H](Cc3c[nH]cn3)NC(=O)[C@H](CCCNC(=N)N)NC(=O)[C@H](CCCCN)NC(=O)[C@H](CCCNC(=N)N)NC(=O)[C@H](CCC(N)=O)NC(=O)[C@H](C)NC(=O)[C@H](CCC(N)=O)NC(=O)[C@H](CCCCN)NC(=O)[C@H](CCCCN)NC(=O)COCCOCCNC(=S)Nc3ccc4c(c3)C(=O)OC43c4ccc(O)cc4Oc4cc(O)ccc43)C(=O)N[C@@H](CC(N)=O)C(=O)N[C@@H](CCCNC(=N)N)C(=O)N[C@@H](CCCCN)C(=O)N2)C(=O)N[C@@H](CCCNC(=N)N)C(=O)N[C@@H](CCCNC(=N)N)C(=O)N[C@@H](CO)C(=O)N1)C(=O)N[C@@H](Cc1c[nH]c2ccccc12)C(=O)N[C@@H](Cc1c[nH]cn1)C(=O)N[C@@H](C)C(=O)N[C@@H](CCCNC(=N)N)C(N)=O [B3] ({FITC-AEEA}-KKQAQRKRHK[S5]NRK[S5]RGHKSPSE[S5]RRS[S5]LWHAR-NH2; staple 11-15, 24-28)",4 fold,did not bind,did not observe binding,indicated pre–miRNA-binding
